Measured values published in patent publication US20240092758A1, “IMIDAZOLO INDAZOLE COMPOUNDS AS JAK INHIBITORS” (Theravance Biopharma R&D IP, LLC, priority 2021, published 2024).

Columns and labels:
[1] = tested on: IL-13 induced STAT6 phosphorylation in BEAS-2B human lung epithelial cells; assay: Cellular JAKI potency assay (BEAS-2B); format: cell-based; settings: Homo sapiens, BEAS-2B, BEAS-2B cells, read-out: BEAS2B pIC50 (converted)
Outline: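 AlphaLISA SureFire detection of Tyr641 pSTAT6 in lysates gave IC50s (4-parameter fit, expressed as pIC50). Cells: human BEAS-2B, exposed 1 h at 37 °C to compound dose series at 0.1% DMSO, then 30 min to IL-13 added at 80 ng/mL in HEPES-buffered HBSS with BSA.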

JAK1 = JAK1 (Homo sapiens (Human), UniProt P23458); assay: Biochemical JAK kinase assay (LanthaScreen), JAK1; settings: read-out: JAK1 pKi (converted)
Outline: (§1)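 LanthaScreen format: phospho-STAT1 (pTyr701) detected with 2 nM Tb antibody after 10 mM EDTA quench. Kinase step used Km-level ATP and 200 nM STAT1 peptide, 1 h at ambient after 1 h pre-incubation. Inhibition fitted to IC50, reported as pKi.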

[2] = tested on: IL-13 induced pSTAT6 in lung tissue; assay: Murine model of IL-13 induced pSTAT6 induction in lung tissue; format: in vivo, mouse; settings: balb/c mice, test compound 0.5 mg/mL, 50 μL by oral aspiration, IL-13 challenge eight hours later, lungs collected one hour after
Method: IL-13 binds to cell surface receptors activating members of the Janus family of kinases (JAK) which then phosphorylate STAT6 and subsequently activate further transcription pathways. In the described model, a dose of IL-13 was delivered locally into the lungs of mice to induce the phosphorylation of STAT6 (pSTAT6) which is then measured as the endpoint.
Adult balb/c mice from Harlan were used in the assay. On the day of study, animals were lightly anesthetized with isoflurane and administered either vehicle or test compound (0.5 mg/mL, […] total volume over several breaths) via oral aspiration.
Animals were placed in lateral recumbency post dose and monitored for full recovery from anesthesia before being returned to their home cage. Eight hours later, animals were once again briefly anesthetized and challenged with either vehicle or IL-13 (0.03 μg total dose delivered, 50 μL total volume) via oral aspiration before being monitored for recovery from anesthesia and returned to their home cage. One hour after vehicle or IL-13 administration, lungs were collected for both pSTAT6 detection using an AlphaLISA Immunoassay (PerkinElmer) and analyzed for total drug concentration.
Selected compounds of the present disclosure were tested in the assay. Activity in the model is evidenced by a decrease in the level of pSTAT6 present in the lungs of treated animals at 9 hours compared to the vehicle treated, IL-13 challenged control animals. The difference between the control animals which were vehicle-treated, IL-13 challenged and the control animals which were vehicle-treated, vehicle challenged dictated the 0% and 100% inhibitory effect, respectively, in any given experiment.

JAK3 = JAK3 (Homo sapiens (Human), UniProt P52333); assay: Biochemical JAK kinase assay (LanthaScreen), JAK3; settings: read-out: JAK3 pKi (converted)
Outline: as §1

TYK2 = TYK2 (Homo sapiens (Human), UniProt P29597); assay: Biochemical JAK kinase assay (LanthaScreen), Tyk2; settings: read-out: Tyk2 pKi (converted)
Outline: as §1

JAK2 = JAK2 (Homo sapiens (Human), UniProt O60674); assay: Biochemical JAK kinase assay (LanthaScreen), JAK2; settings: read-out: JAK2 pKi (converted)
Outline: as §1

Chain of JAK1 (P23458 whole entry): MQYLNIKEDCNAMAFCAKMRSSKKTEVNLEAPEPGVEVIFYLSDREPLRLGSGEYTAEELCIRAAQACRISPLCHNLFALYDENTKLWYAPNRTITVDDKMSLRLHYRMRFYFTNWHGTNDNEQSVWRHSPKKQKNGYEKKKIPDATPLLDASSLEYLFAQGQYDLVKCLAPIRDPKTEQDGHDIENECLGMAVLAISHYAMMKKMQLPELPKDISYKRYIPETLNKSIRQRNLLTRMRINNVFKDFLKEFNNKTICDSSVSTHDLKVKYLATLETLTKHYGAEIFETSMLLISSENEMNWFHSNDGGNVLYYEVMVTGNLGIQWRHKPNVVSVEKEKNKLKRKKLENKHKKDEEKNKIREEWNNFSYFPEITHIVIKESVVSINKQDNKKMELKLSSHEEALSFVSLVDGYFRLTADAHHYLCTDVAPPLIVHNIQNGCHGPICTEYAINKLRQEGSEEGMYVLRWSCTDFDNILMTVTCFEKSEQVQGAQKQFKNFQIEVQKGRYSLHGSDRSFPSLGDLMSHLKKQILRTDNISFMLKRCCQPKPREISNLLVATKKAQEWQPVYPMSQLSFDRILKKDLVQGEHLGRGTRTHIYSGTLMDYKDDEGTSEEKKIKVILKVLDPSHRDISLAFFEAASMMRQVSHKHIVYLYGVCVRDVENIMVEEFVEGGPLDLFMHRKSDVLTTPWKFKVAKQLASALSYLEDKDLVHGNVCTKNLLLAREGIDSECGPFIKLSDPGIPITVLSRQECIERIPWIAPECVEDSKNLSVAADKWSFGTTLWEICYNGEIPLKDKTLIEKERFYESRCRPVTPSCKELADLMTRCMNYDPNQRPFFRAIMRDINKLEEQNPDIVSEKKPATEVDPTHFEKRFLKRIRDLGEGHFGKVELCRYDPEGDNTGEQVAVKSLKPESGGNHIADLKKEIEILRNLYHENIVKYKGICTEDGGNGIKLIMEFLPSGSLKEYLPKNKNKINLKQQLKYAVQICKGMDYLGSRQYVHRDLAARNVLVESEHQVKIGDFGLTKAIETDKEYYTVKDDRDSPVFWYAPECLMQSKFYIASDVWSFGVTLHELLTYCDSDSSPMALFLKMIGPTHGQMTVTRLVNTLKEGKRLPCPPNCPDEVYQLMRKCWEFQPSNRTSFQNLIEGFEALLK
Chain of JAK3 (P52333 whole entry): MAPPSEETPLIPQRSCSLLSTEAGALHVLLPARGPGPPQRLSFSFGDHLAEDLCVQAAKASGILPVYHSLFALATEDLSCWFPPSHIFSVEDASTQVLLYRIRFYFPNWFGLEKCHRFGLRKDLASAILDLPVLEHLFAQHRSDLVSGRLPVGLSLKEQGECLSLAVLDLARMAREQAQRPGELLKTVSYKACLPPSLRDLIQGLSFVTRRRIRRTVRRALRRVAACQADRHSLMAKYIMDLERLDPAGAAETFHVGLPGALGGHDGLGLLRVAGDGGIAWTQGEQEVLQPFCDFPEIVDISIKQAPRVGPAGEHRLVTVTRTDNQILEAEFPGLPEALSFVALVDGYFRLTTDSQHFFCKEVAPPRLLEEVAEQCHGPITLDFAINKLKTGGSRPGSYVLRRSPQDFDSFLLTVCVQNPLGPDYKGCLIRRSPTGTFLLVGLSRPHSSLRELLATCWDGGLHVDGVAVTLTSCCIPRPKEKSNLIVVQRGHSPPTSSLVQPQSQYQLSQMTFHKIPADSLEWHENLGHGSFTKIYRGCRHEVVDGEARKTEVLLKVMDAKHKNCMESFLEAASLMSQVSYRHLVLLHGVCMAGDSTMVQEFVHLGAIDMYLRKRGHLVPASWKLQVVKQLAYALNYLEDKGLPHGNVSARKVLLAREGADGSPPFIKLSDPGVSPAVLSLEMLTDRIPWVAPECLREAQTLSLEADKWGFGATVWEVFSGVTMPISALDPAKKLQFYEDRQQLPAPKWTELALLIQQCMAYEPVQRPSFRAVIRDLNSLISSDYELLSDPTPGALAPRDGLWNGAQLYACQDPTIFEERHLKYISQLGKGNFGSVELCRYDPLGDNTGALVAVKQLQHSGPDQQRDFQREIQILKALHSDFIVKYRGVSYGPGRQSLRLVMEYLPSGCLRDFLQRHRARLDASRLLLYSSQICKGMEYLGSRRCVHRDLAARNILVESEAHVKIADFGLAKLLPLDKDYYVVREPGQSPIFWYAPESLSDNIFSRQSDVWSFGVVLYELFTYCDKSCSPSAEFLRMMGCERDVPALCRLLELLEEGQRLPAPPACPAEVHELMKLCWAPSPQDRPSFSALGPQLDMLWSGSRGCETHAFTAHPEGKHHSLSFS
Chain of JAK2 (O60674 whole entry): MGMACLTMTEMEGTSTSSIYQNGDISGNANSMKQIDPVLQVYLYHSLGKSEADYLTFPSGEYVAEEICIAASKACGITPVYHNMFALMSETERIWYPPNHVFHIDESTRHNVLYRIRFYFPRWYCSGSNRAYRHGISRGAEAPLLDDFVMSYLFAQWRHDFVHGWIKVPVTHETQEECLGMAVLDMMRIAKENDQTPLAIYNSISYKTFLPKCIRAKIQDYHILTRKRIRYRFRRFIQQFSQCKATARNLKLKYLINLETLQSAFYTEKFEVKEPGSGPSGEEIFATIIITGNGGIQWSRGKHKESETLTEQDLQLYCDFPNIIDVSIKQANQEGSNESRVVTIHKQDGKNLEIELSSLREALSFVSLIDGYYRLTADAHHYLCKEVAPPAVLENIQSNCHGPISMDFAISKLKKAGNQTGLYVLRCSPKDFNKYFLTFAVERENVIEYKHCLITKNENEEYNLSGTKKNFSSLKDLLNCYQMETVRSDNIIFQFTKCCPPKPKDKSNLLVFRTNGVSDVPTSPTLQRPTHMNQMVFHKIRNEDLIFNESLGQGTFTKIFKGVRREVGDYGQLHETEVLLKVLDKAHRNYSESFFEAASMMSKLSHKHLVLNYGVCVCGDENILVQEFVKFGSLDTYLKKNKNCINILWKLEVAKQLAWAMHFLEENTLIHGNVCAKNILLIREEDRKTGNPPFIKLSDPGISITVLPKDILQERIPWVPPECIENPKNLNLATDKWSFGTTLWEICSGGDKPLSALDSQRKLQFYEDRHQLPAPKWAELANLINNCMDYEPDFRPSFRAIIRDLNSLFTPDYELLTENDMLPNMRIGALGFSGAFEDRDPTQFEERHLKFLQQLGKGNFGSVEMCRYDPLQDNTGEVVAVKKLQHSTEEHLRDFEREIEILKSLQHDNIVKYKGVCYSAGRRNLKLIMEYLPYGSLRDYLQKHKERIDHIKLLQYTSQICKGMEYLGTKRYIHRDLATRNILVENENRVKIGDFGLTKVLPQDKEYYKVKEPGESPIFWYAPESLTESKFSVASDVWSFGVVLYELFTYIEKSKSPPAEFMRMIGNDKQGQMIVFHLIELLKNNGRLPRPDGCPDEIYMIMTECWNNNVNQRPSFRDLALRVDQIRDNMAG
Chain of TYK2 (P29597 whole entry): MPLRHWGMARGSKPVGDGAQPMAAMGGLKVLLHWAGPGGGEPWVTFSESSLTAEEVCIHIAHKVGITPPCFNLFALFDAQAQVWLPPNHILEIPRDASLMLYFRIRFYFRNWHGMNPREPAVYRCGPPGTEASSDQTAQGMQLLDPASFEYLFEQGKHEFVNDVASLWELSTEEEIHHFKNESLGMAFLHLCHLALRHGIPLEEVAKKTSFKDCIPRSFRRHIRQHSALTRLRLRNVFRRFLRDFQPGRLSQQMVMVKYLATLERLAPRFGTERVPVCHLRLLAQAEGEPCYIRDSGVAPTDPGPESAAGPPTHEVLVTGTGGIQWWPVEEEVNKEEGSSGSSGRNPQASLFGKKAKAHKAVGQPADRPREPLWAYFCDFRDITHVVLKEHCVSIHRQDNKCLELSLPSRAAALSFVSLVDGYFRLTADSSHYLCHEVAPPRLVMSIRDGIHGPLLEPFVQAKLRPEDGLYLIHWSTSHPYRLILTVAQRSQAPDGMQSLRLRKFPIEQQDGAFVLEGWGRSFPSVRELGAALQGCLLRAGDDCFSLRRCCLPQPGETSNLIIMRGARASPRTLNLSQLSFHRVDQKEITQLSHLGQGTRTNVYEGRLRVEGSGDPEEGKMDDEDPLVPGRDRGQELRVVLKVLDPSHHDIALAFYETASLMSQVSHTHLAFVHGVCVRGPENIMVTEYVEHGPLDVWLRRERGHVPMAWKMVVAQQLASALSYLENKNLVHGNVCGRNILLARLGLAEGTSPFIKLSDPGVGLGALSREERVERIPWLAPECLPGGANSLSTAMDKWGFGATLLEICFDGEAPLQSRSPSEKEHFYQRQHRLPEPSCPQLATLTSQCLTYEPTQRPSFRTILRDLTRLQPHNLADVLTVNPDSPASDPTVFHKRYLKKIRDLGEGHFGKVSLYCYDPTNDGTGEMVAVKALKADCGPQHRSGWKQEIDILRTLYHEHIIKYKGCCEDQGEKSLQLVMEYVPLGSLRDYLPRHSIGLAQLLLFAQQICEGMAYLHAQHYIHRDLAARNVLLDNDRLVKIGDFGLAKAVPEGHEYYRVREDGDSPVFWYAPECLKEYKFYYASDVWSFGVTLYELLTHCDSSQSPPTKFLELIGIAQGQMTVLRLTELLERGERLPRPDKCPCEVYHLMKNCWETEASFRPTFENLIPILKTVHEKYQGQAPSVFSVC

| Compound | IC50 [1] [nM] | Ki (JAK1) [nM] | % pSTAT6 inhibition at 8 hours [2] | Ki (JAK3) [nM] | Ki (TYK2) [nM] | Ki (JAK2) [nM] |
| --- | --- | --- | --- | --- | --- | --- |
| CCc1cc(O)ccc1-c1ccc2c(-c3nc(C4=CCNC4)c[nH]3)n[nH]c2c1F [Compound 1, 4-(3-(4-(2,5-dihydro-1H-pyrrol-3-yl)-1H-imidazol-2-yl)-7-fluoro-1H-indazol-6-yl)-3-ethylphenol] | 3.16 to 10 | 0.1 to 1 | A (A represents between 80% and 100% inhibition) | 0.1 to 1 | 1 to 10 | 0.1 to 1 |
| CCc1cc(O)ccc1-c1ccc2c(-c3nc(C4=CCNCC4)c[nH]3)n[nH]c2c1F [Compound 2, 3-ethyl-4-(7-fluoro-3-(4-(1,2,3,6-tetrahydropyridin-4-yl)-1H-imidazol-2-yl)-1H-indazol-6-yl)phenol] | 3.16 to 10 | 0.1 to 1 | A (A represents between 80% and 100% inhibition) | 1 to 10 | 1 to 10 | 0.1 to 1 |
| CCc1cc(O)ccc1-c1ccc2c(-c3nc(C4=CCNCC4)c[nH]3)n[nH]c2c1 [Compound 3, 3-ethyl-4-(3-(4-(1,2,3,6-tetrahydropyridin-4-yl)-1H-imidazol-2-yl)-1H-indazol-6-yl)phenol] | 3.16 to 10 | 0.1 to 1 | A (A represents between 80% and 100% inhibition) | 1 to 10 | 0.1 to 1 | 0.1 to 1 |
